Measured values taken from US20110105389A1 (priority 2009, published 2011).
Like-named read-outs stand apart in the source and are kept apart here.

How the values were obtained:
[1] = target: T1, human ghrelin receptor (GRLN, growth hormone secretagogue receptor, hGHS-R1a) (Homo sapiens, UniProt Q92847); assay: Competitive radioligand binding assay (ghrelin receptor), Method B1
T1 construct: purchased PerkinElmer BioSignal #RBHGHSM, lot#1887; host or cells: HEK-293 cells, stably transfected (membranes)
Procedure, shortened: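 Filtration competition format: bound radioactivity counted after GF/C harvesting and cold 50 mM Tris-HCl washes. Incubation lasted 30 min at room temperature in Hepes pH 7.4 buffer with Ca2+, Mg2+, EDTA and 0.4% BSA (DMSO ≤0.1% final); values from variable-slope non-linear regression.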

CYP2D6 [2] = target: T2, CYP2D6 (Homo sapiens, UniProt P10635); assay: Cytochrome P450 inhibition, Method B6; settings: read-out: IC50 CYP 2D6; Table 4b; dextromethorphan used as substrate
CYP3A4 [3] = target: T3, CYP3A4 (Homo sapiens, UniProt P08684); assay: Cytochrome P450 inhibition, Method B6 (two substrates); settings: read-out: IC50 CYP 3A4; Table 4b; midazolam used as substrate
[4] = target: T4, GHS-R1a receptor (HEK293 cells expressing GHS-R1a receptor) (Homo sapiens, UniProt Q92847); assay: Fluorescence functional assay (ghrelin receptor), Method B2, agonist and antagonist mode; type: cell-based; settings: functional activity as an antagonist at the ghrelin receptor, Methods B2 and B3
T4 construct: host or cells: HEK293
Procedure, shortened: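 Calcium flux read by ImageTrak epifluorescence in HEK293 cells stably expressing GHS-R1a, loaded 1 h at 37 °C with Calcium-3 dye; buffer HBSS/20 mM Hepes, pH 7.4, with probenecid and BSA. Agonists injected after 10 s baseline, read 50 s more; antagonists 3 min. Sigmoidal fits gave EC50 or IC50.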

[5] = Metabolic stability in human liver microsomes, Method B8; type: in vitro ADME; settings: human liver microsomes 0.8 mg/mL, 5 μM compound, 37° C.
From the text: B8. Metabolic Stability in Human Liver Microsomes
The liver is the primary site for phase I (oxidation) and phase II (glucuronidation) enzymatic activity responsible for xenobiotic metabolism. Human liver microsomes are used as in vitro screen of metabolic activity for candidate drugs. Similar studies can be run with microsomes from other species, such as those used for in vivo studies, to determine any significant species differences in the stability profile. The aim of this study was to measure the broad-spectrum metabolic stability of representative compounds of the invention. The key aspects of the experimental design are summarized below: • Human liver microsomes (mixed pool of 15 male and female donors) were purchased from In Vitro Technologies (Baltimore, Md.). • Microsomes characterized for phase I (Cyp2A6, 2D6, 2E1, 1A2, 2C19, 3A4, 4A) and phase II (glucuronidation) enzymatic activity. • Assays are performed using a final concentration of 0.8 mg/mL of microsomes in 100 mM potassium phosphate buffer (1.5 mM NADPH, 8 mM MgCl2, pH 7.4, 37° C.). • Compounds are tested in duplicate samples at a single concentration of 5 μM (0.05% DMSO). • Test articles are incubated with the microsomes at 37° C.

CYP2D6 [6] = target: T2, CYP2D6; assay: biochemical
[7] = test system: rat stomach fundus strips; assay: Ex-vivo potency evaluation on the rat stomach fundus (inhibition of ghrelin-induced contractility), Method B10; settings: EFS
Protocol: B10. Ex-vivo Potency Evaluation on the Rat Stomach Fundus
Fundus strips (approximately 0.4×1 cm) were cut from the stomach of adult male Wistar rats parallel to the circular muscle fibers. They were placed between two platinum ring electrodes, 1 cm apart (Radnoti, ADlnstruments, USA) in 10 ml tissue baths containing Krebs solution bubbled with 5% CO2 in O2 and maintained at 37° C. Tissues were suspended under 1.5 g resting tension. Changes of tension were measured isometrically with force transducers and recorded with a PowerLab 8/30 data acquisition system (ADlnstruments, USA). Tissues were allowed to equilibrate for 60 min during which time bath solutions were changed every 15 min.
EFS was achieved by applying 0.5 ms pulses, 5 Hz frequency, at a maximally effective voltage of 70 V. EFS was applied for 30 sec at 3 min intervals for a 30 min initial period. This initial period was separated by a […] interval with wash out of the bath solution. Then, a second period of stimulation was started. […] Responses to the agents were measured and expressed as % of the mean of three or four pre-drug responses to EFS. All compounds were dissolved at 1 mM in distilled water or MeOH, as stock solutions.
IC50 values for the inhibition of ghrelin-induced contractility by representative compounds of the invention are presented in Table 7.

CYP3A4 [8] = target: T3, CYP3A4; assay: biochemical
[9] = cited from earlier work
[10] = Ghrelin receptor binding activity, Method B1

T3 sequence (P08684 whole entry): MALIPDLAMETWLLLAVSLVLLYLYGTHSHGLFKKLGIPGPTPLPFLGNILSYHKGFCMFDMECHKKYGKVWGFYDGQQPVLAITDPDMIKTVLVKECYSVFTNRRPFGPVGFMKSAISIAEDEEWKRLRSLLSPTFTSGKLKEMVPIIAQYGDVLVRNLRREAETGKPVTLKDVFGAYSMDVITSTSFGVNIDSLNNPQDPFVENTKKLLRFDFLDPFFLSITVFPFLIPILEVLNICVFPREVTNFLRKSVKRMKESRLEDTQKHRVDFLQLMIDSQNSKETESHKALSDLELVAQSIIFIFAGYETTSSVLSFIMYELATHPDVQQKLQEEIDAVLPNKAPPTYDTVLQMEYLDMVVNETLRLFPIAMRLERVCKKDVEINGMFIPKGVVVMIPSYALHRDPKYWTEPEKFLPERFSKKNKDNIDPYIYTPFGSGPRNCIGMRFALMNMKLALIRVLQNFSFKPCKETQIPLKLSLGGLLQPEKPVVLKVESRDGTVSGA
T2 sequence (P10635 whole entry): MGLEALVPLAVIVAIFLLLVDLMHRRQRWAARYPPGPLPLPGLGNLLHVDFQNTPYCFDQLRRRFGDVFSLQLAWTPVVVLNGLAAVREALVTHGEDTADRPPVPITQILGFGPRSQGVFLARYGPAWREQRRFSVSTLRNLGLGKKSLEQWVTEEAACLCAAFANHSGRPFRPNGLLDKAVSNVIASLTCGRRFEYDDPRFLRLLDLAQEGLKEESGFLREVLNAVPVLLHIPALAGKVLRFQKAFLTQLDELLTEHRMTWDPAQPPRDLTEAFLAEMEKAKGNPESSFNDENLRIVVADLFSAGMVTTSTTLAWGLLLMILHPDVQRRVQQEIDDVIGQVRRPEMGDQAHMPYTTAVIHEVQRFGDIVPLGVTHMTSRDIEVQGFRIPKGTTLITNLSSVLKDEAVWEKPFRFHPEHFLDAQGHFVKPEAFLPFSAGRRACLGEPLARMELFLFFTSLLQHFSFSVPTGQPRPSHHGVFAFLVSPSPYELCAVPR
T1 sequence (Q92847 whole entry): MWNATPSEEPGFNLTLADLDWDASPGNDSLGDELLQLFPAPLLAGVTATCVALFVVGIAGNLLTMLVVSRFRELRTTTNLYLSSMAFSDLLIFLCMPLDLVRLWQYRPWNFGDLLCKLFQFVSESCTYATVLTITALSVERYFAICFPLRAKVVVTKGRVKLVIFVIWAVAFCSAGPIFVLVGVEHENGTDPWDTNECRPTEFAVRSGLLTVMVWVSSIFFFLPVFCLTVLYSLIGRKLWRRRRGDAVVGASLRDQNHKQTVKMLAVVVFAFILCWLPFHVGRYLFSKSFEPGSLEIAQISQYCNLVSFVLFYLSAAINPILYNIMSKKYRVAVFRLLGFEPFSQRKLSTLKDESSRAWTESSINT
T4 sequence (Q92847 whole entry): as above

SMILES	IC50 (CYP2D6 [2]) [nM]	IC50 (CYP3A4 [3]) [nM]	Antagonist Activity [4]	also measured
CCC(C)[C@@H]1NCCOc2ccccc2/C=C/CNC(=O)[C@@H](Cc2ccccc2)NC(=O)[C@H](C(C)O)N(C)C1=O (stereo partly drawn) [Compound 1318]	> 5000	3900	C (C = 10-100 nM)	IC50 [1, 10]: 10 to 100 nM; Ki [1, 10]: 1 to 10 nM
CC(C)[C@@H]1NCCOc2ccccc2/C=C/CNC(=O)[C@@H](Cc2ccccc2)NC(=O)[C@H](C(C)O)N(C)C1=O (stereo partly drawn) [Compound 1319]	–	–	–	IC50 [1]: 10 to 100 nM; Ki [1]: 1 to 10 nM; HLM, metabolic stability in human liver microsomes [5]: 26.5 μL/min/mg protein; IC50 (CYP2D6 [6]): 19100 nM; IC50 [7]: 72 nM; IC50 (CYP3A4 [8]): 8000 nM
COC(C)[C@@H]1NCCOc2ccccc2/C=C/CNC(=O)[C@@H](Cc2ccccc2)NC(=O)[C@H](C(C)O)N(C)C1=O (stereo partly drawn) [Compound 1324]	> 5000	> 5000	D (D = 100-500 nM)	Ki [1, 10]: 10 to 100 nM
CCC(C)[C@@H]1NCCOc2ccccc2/C=C/CNC(=O)[C@@H](Cc2ccccc2F)NC(=O)[C@H](C(C)O)N(C)C1=O (stereo partly drawn) [Compound 1325]	> 5000	> 3100	C (C = 10-100 nM)	IC50 [1, 10]: 10 to 100 nM; Ki [1, 10]: 10 to 100 nM; IC50 [7]: 29 nM
CC(C)[C@@H]1NCCOc2ccccc2/C=C/CNC(=O)[C@@H](Cc2cccc(O)c2)NC(=O)[C@H](C(C)O)N(C)C1=O (stereo partly drawn) [Compound 1350]	7900	5700	C (C = 10-100 nM)	–
CCC(C)[C@@H]1NCCOc2ccccc2CC[C@@H](C)NC(=O)[C@@H](Cc2ccccc2)NC(=O)[C@H](C(C)O)N(C)C1=O (stereo partly drawn) [Compound 1358]	> 20000	1600	C (C = 10-100 nM)	–
CC(C)[C@@H]1NCCOc2ccccc2CC[C@@H](C)NC(=O)[C@@H](Cc2c[nH]c3ccccc23)NC(=O)[C@H](C(C)O)N(C)C1=O (stereo partly drawn) [Compound 1375]	> 20000	8800	B (B = 1-10 nM)	HLM, metabolic stability in human liver microsomes [5]: 58.4 μL/min/mg protein
CC(C)[C@@H]1NCCOc2ccccc2CC[C@@H](C)NC(=O)[C@@H](Cc2ccsc2)NC(=O)[C@H](C(C)O)N(C)C1=O (stereo partly drawn) [Compound 1399]	> 20000	2300	B (B = 1-10 nM)	–
CC(C)[C@@H]1NCCOc2ccccc2CC[C@@H](C)NC(=O)[C@@H](Cc2ccc3ccccc3n2)NC(=O)[C@H](C(C)O)N(C)C1=O (stereo partly drawn) [Compound 1413]	14700	1000	B (B = 1-10 nM)	–
COc1ccccc1C[C@H]1NC(=O)[C@H](C(C)O)N(C)C(=O)[C@H](C(C)C)NCCOc2ccccc2CC[C@@H](C)NC1=O (stereo partly drawn) [Compound 1418]	14500	900	B (B = 1-10 nM)	HLM, metabolic stability in human liver microsomes [5]: 32.2 μL/min/mg protein
CC(C)[C@@H]1NCCOc2ccc(F)cc2CC[C@@H](C)NC(=O)[C@@H](Cc2c[nH]c3ccccc23)NC(=O)[C@H](C(C)O)N(C)C1=O (stereo partly drawn) [Compound 1428]	9100	800	–	–
CC(C)[C@@H]1NCCOc2cccc(F)c2CC[C@@H](C)NC(=O)[C@@H](Cc2c[nH]c3ccccc23)NC(=O)[C@H](C(C)O)N(C)C1=O (stereo partly drawn) [Compound 1429]	> 20000	700	–	–
CC(C)[C@@H]1NCCOc2ccccc2/C=C/CNC(=O)[C@@H](Cc2cccc(Cl)c2)NC(=O)[C@H](C(C)O)N(C)C1=O (stereo partly drawn) [Compound 1432]	5200	1200	B (B = 1-10 nM)	HLM, metabolic stability in human liver microsomes [5]: 25.1 μL/min/mg protein
C=C[C@H]1C[N@@]2CC[C@H]1C[C@H]2[C@H](O)c1ccnc2ccc(OC)cc12 [quinine]	–	–	–	known plasma protein binding value ([9]; reference controls): ~35%
CC(=O)CC(c1ccccc1)c1c(O)c2ccccc2oc1=O (stereo not drawn) [warfarin]	–	–	–	known plasma protein binding value ([9]; plasma): ~98%
